Converted amounts (≈) assume the structure as drawn. A value given as a limit tells only on which side of the number the result lay.

Common to all, as to type: functional
For assay [1], the system named is Staphylococcus aureus. In words: Antibacterial activity against Staphylococcus aureus Smith OC4172.
Assay [2] deals with Staphylococcus aureus. The experiment in a line: Antibacterial activity against Staphylococcus aureus Smith OC4172 in presence of 50% mouse serum.
For assay [3], the system named is Streptococcus pneumoniae. In words: Antibacterial activity against erythromycin-susceptible Streptococcus pneumoniae ATCC 6301.
The test system of assay [4] is Streptococcus pneumoniae. The experiment in a line: Antibacterial activity against erythromycin-resistant Streptococcus pneumoniae OC4051.
Assay [5] relates to Streptococcus pneumoniae. In words: Antibacterial activity against erythromycin-resistant Streptococcus pneumoniae OC4421.
A further assay relates to Haemophilus influenzae. The experiment in a line: Antibacterial activity against Haemophilus influenzae OC4882.

As to `CC[C@H]1OC(=O)[C@H](C)C(=O)[C@H](C)[C@@H](O[C@@H]2O[C@H](C)C[C@H](N(C)C)[C@H]2O)[C@](C)(OC(=O)NC/C=C/c2cccnc2)C[C@@H](C)C(=O)[C@H](C)[C@H]2CC(=O)O[C@@]21C`, the MIC stood at 1 µg/mL (≈ 1.32 µM) with Staphylococcus aureus [1]; 1 µg/mL in the assay with Staphylococcus aureus [2]; 0.03 µg/mL (≈ 0.0396 µM) in the assay with Streptococcus pneumoniae [3]; 2 µg/mL (≈ 2.64 µM) in the assay on Streptococcus pneumoniae [4]; 0.5 µg/mL (≈ 0.66 µM) with Streptococcus pneumoniae [5]; 4 µg/mL (≈ 5.28 µM) against Haemophilus influenzae.

Turning to `CC[C@H]1OC(=O)[C@H](C)C(=O)[C@H](C)[C@@H](O[C@@H]2O[C@H](C)C[C@H](N(C)C)[C@H]2O)[C@](C)(OC(=O)NCc2ccc3ncccc3c2)C[C@@H](C)C(=O)[C@H](C)[C@H]2CC(=O)O[C@@]21C`, the MIC in the assay on Staphylococcus aureus [1] was found to be 1 µg/mL (≈ 1.28 µM); in the assay with Staphylococcus aureus [2], 4 µg/mL; with Streptococcus pneumoniae [3], 0.06 µg/mL (≈ 0.0767 µM); against Streptococcus pneumoniae [4] it was 2 µg/mL (≈ 2.56 µM); in the assay on Streptococcus pneumoniae [5] it was 0.5 µg/mL (≈ 0.639 µM); against Haemophilus influenzae, 8 µg/mL (≈ 10.2 µM).

As for `CC[C@H]1OC(=O)[C@H](C)C(=O)[C@H](C)[C@@H](O[C@@H]2O[C@H](C)C[C@H](N(C)C)[C@H]2O)[C@](C)(OC(=O)NCc2ccc(-c3ccccn3)cc2)C[C@@H](C)C(=O)[C@H](C)[C@H]2CC(=O)O[C@@]21C`, the MIC with Staphylococcus aureus [1] is 1 µg/mL (≈ 1.24 µM); in the assay with Staphylococcus aureus [2], 8 µg/mL; in the assay with Streptococcus pneumoniae [3], 0.03 µg/mL (≈ 0.0371 µM); against Streptococcus pneumoniae [4] it was 0.25 µg/mL (≈ 0.309 µM); against Streptococcus pneumoniae [5], 0.5 µg/mL (≈ 0.619 µM); with Haemophilus influenzae it was 16 µg/mL (≈ 19.8 µM).

Take `CC[C@H]1OC(=O)[C@H](C)C(=O)[C@H](C)[C@@H](O[C@@H]2O[C@H](C)C[C@H](N(C)C)[C@H]2O)[C@](C)(OC(=O)NC/C=C/c2ccc3ncccc3c2)C[C@@H](C)C(=O)[C@H](C)[C@H]2CC(=O)O[C@@]21C`: the MIC against Staphylococcus aureus [1] came to 0.5 µg/mL (≈ 0.619 µM); with Staphylococcus aureus [2], 2 µg/mL; against Streptococcus pneumoniae [3], 0.03 µg/mL (≈ 0.0371 µM); in the assay with Streptococcus pneumoniae [4], 0.12 µg/mL (≈ 0.149 µM); with Streptococcus pneumoniae [5], 0.25 µg/mL (≈ 0.309 µM); in the assay on Haemophilus influenzae, 2 µg/mL (≈ 2.48 µM).

On to `CC[C@H]1OC(=O)[C@H](C)C(=O)[C@H](C)[C@@H](O[C@@H]2O[C@H](C)C[C@H](N(C)C)[C@H]2O)[C@](C)(OC(=O)NC/C=C/c2ccc3nccnc3c2)C[C@@H](C)C(=O)[C@H](C)[C@H]2CC(=O)O[C@@]21C`, for which the MIC against Staphylococcus aureus [1] was 0.5 µg/mL (≈ 0.618 µM); in the assay with Staphylococcus aureus [2], 2 µg/mL; in the assay on Streptococcus pneumoniae [3], 0.03 µg/mL (≈ 0.0371 µM); against Streptococcus pneumoniae [4], 0.25 µg/mL (≈ 0.309 µM); in the assay with Streptococcus pneumoniae [5] it was 0.5 µg/mL (≈ 0.618 µM); with Haemophilus influenzae, 4 µg/mL (≈ 4.94 µM).

As for `CC[C@H]1OC(=O)[C@H](C)C(=O)[C@H](C)[C@@H](O[C@@H]2O[C@H](C)C[C@H](N(C)C)[C@H]2O)[C@](C)(OC(=O)NC/C=C/c2ccc(-c3ccccn3)cc2)C[C@@H](C)C(=O)[C@H](C)[C@H]2CC(=O)O[C@@]21C`, the MIC worked out at 0.5 µg/mL (≈ 0.6 µM) against Staphylococcus aureus [1]; 2 µg/mL with Staphylococcus aureus [2]; 0.06 µg/mL (≈ 0.0719 µM) against Streptococcus pneumoniae [3]; 0.25 µg/mL (≈ 0.3 µM) against Streptococcus pneumoniae [4]; 0.5 µg/mL (≈ 0.6 µM) in the assay with Streptococcus pneumoniae [5]; 8 µg/mL (≈ 9.59 µM) in the assay with Haemophilus influenzae.

`CC[C@H]1OC(=O)[C@H](C)C(=O)[C@H](C)[C@@H](O[C@@H]2O[C@H](C)C[C@H](N(C)C)[C@H]2O)[C@](C)(OC(=O)NCc2cnc3ccccc3c2)C[C@@H](C)C(=O)[C@H](C)[C@H]2CC(=O)O[C@@]21C`: the MIC was 0.5 µg/mL (≈ 0.639 µM) against Staphylococcus aureus [1]; 4 µg/mL with Staphylococcus aureus [2]; 0.06 µg/mL (≈ 0.0767 µM) in the assay on Streptococcus pneumoniae [3]; 0.5 µg/mL (≈ 0.639 µM) in the assay on Streptococcus pneumoniae [4]; 0.5 µg/mL (≈ 0.639 µM) against Streptococcus pneumoniae [5]; 8 µg/mL (≈ 10.2 µM) in the assay on Haemophilus influenzae.

As for `CC[C@H]1OC(=O)[C@H](C)C(=O)[C@H](C)[C@@H](O[C@@H]2O[C@H](C)C[C@H](N(C)C)[C@H]2O)[C@](C)(OC(=O)NC/C=C/c2cncc3ccccc23)C[C@@H](C)C(=O)[C@H](C)[C@H]2CC(=O)O[C@@]21C`, the MIC was 0.5 µg/mL (≈ 0.619 µM) with Staphylococcus aureus [1]; 4 µg/mL with Staphylococcus aureus [2]; at most 0.015 µg/mL in the assay on Streptococcus pneumoniae [3]; 0.25 µg/mL (≈ 0.309 µM) against Streptococcus pneumoniae [4]; 0.25 µg/mL (≈ 0.309 µM) in the assay on Streptococcus pneumoniae [5]; 4 µg/mL (≈ 4.95 µM) against Haemophilus influenzae.

Take `CC[C@H]1OC(=O)[C@H](C)C(=O)[C@H](C)[C@@H](O[C@@H]2O[C@H](C)C[C@H](N(C)C)[C@H]2O)[C@](C)(OC(=O)NC/C=C/c2ccc3cccnc3c2)C[C@@H](C)C(=O)[C@H](C)[C@H]2CC(=O)O[C@@]21C`: the MIC came out at 0.25 µg/mL (≈ 0.309 µM) with Staphylococcus aureus [1]; 4 µg/mL in the assay with Staphylococcus aureus [2]; 0.03 µg/mL (≈ 0.0371 µM) against Streptococcus pneumoniae [3]; 0.12 µg/mL (≈ 0.149 µM) against Streptococcus pneumoniae [4]; 0.25 µg/mL (≈ 0.309 µM) against Streptococcus pneumoniae [5]; 2 µg/mL (≈ 2.48 µM) against Haemophilus influenzae.

For `CC[C@H]1OC(=O)[C@H](C)C(=O)[C@H](C)[C@@H](O[C@@H]2O[C@H](C)C[C@H](N(C)C)[C@H]2O)[C@](C)(OC(=O)NC/C=C/c2cnc3ccccc3c2)C[C@@H](C)C(=O)[C@H](C)[C@H]2CC(=O)O[C@@]21C`, the MIC in the assay on Staphylococcus aureus [1] is 0.5 µg/mL (≈ 0.619 µM); in the assay on Staphylococcus aureus [2], 2 µg/mL; against Streptococcus pneumoniae [3], at most 0.015 µg/mL; in the assay on Streptococcus pneumoniae [4], 0.12 µg/mL (≈ 0.149 µM); in the assay with Streptococcus pneumoniae [5], 0.25 µg/mL (≈ 0.309 µM); against Haemophilus influenzae, 8 µg/mL (≈ 9.9 µM).

In the case of `CC[C@H]1OC(=O)[C@H](C)C(=O)[C@H](C)[C@@H](O[C@@H]2O[C@H](C)C[C@H](N(C)C)[C@H]2O)[C@](C)(OC(=O)NC/C=C/c2ccc(-c3ccccc3)nc2)C[C@@H](C)C(=O)[C@H](C)[C@H]2CC(=O)O[C@@]21C`, the MIC with Staphylococcus aureus [1] came to 0.5 µg/mL (≈ 0.6 µM); in the assay with Staphylococcus aureus [2], 2 µg/mL; against Streptococcus pneumoniae [4], 0.5 µg/mL (≈ 0.6 µM); with Streptococcus pneumoniae [5], 0.5 µg/mL (≈ 0.6 µM); against Haemophilus influenzae, 8 µg/mL (≈ 9.59 µM).

As for `CC[C@H]1OC(=O)[C@H](C)C(=O)[C@H](C)[C@@H](O[C@@H]2O[C@H](C)C[C@H](N(C)C)[C@H]2O)[C@](C)(OC(=O)NC/C=C/c2ccc(-c3ncccn3)cc2)C[C@@H](C)C(=O)[C@H](C)[C@H]2NC(=O)O[C@@]21C`, the MIC was 0.12 µg/mL (≈ 0.144 µM) with Staphylococcus aureus [1]; 0.25 µg/mL with Staphylococcus aureus [2]; 0.03 µg/mL (≈ 0.0359 µM) in the assay with Streptococcus pneumoniae [3]; 0.06 µg/mL (≈ 0.0718 µM) with Streptococcus pneumoniae [4]; 0.06 µg/mL (≈ 0.0718 µM) against Streptococcus pneumoniae [5]; 4 µg/mL (≈ 4.78 µM) against Haemophilus influenzae.

Turning to `CC[C@H]1OC(=O)[C@H](C)C(=O)[C@H](C)[C@@H](O[C@@H]2O[C@H](C)C[C@H](N(C)C)[C@H]2O)[C@](C)(OC(=O)NC/C=C/c2ccc(-c3ncccn3)cc2)C[C@@H](C)C(=O)[C@@H](C)[C@H]2CC(=O)O[C@@]21C`, the MIC against Staphylococcus aureus [1] stood at 2 µg/mL (≈ 2.4 µM); in the assay on Staphylococcus aureus [2], 16 µg/mL; with Streptococcus pneumoniae [3], 0.12 µg/mL (≈ 0.144 µM); with Streptococcus pneumoniae [4], 2 µg/mL (≈ 2.4 µM); with Streptococcus pneumoniae [5] it was 1 µg/mL (≈ 1.2 µM); against Haemophilus influenzae, 8 µg/mL (≈ 9.58 µM).

In the case of `CC[C@H]1OC(=O)[C@H](C)C(=O)[C@H](C)[C@@H](O[C@@H]2O[C@H](C)C[C@H](N(C)C)[C@H]2O)[C@](C)(OC(=O)NC/C=C/c2ccc(-c3ncccn3)cc2)C[C@@H](C)C(=O)[C@H](C)[C@H]2CC(=O)O[C@@]21C`, the MIC in the assay on Staphylococcus aureus [1] was determined as 0.12 µg/mL (≈ 0.144 µM); in the assay on Staphylococcus aureus [2] it was 0.5 µg/mL; with Streptococcus pneumoniae [3], 0.03 µg/mL (≈ 0.0359 µM); against Streptococcus pneumoniae [4] it was 0.06 µg/mL (≈ 0.0719 µM); against Streptococcus pneumoniae [5] it was 0.25 µg/mL (≈ 0.299 µM); in the assay on Haemophilus influenzae it was 8 µg/mL (≈ 9.58 µM).

Turning to `CC[C@H]1OC(=O)[C@H](C)C(=O)[C@H](C)[C@@H](O[C@@H]2O[C@H](C)C[C@H](N(C)C)[C@H]2O)[C@](C)(OC(=O)NC/C=C/c2cccc(-c3ncccn3)c2)C[C@@H](C)C(=O)[C@H](C)[C@H]2CC(=O)O[C@@]21C`, the MIC turned out to be 0.5 µg/mL (≈ 0.599 µM) in the assay on Staphylococcus aureus [1]; 2 µg/mL in the assay on Staphylococcus aureus [2]; 0.06 µg/mL (≈ 0.0719 µM) against Streptococcus pneumoniae [3]; 0.25 µg/mL (≈ 0.299 µM) against Streptococcus pneumoniae [4]; 0.5 µg/mL (≈ 0.599 µM) against Streptococcus pneumoniae [5]; 4 µg/mL (≈ 4.79 µM) in the assay with Haemophilus influenzae.

Turning to `CC[C@H]1OC(=O)[C@H](C)[C@@H](O[C@H]2C[C@@](C)(OC)[C@@H](O)[C@H](C)O2)[C@H](C)[C@@H](O[C@@H]2O[C@H](C)C[C@H](N(C)C)[C@H]2O)[C@](C)(O)C[C@@H](C)C(=O)[C@H](C)[C@@H](O)[C@]1(C)O` [ERYTHROMYCIN], the MIC was 0.5 µg/mL (≈ 0.681 µM) in the assay with Staphylococcus aureus [1]; 0.12 µg/mL in the assay with Staphylococcus aureus [2]; 0.06 µg/mL (≈ 0.0818 µM) against Streptococcus pneumoniae [3]; over 16 µg/mL with Streptococcus pneumoniae [4]; 4 µg/mL (≈ 5.45 µM) against Streptococcus pneumoniae [5]; 8 µg/mL (≈ 10.9 µM) in the assay on Haemophilus influenzae.

As for `CC[C@H]1OC(=O)[C@H](C)C(=O)[C@H](C)[C@@H](O[C@@H]2O[C@H](C)C[C@H](N(C)C)[C@H]2O)[C@](C)(OC)C[C@@H](C)C(=O)[C@H](C)[C@H]2N(CCCCn3cnc(-c4cccnc4)c3)C(=O)O[C@]12C` [TELITHROMYCIN], the MIC against Staphylococcus aureus [1] worked out at 0.12 µg/mL (≈ 0.148 µM); in the assay with Staphylococcus aureus [2], 0.5 µg/mL; in the assay with Streptococcus pneumoniae [3] it was 0.015 µg/mL (≈ 0.0185 µM); with Streptococcus pneumoniae [4], 0.06 µg/mL (≈ 0.0739 µM); against Streptococcus pneumoniae [5], 0.12 µg/mL (≈ 0.148 µM); against Haemophilus influenzae it was 2 µg/mL (≈ 2.46 µM).

(Values after ChEMBL document CHEMBL1146921, “Synthesis and antibacterial activity of 6-O-heteroarylcarbamoyl-11,12-lactoketolides” (2006).)
